Experimental data: patent publication US4742045A, “Glycopeptide antibiotics” (SmithKline Beckman Corporation, priority 1986, dated 1988)
Converted amounts (≈) assume the structure as drawn.

Columns and labels:
[1] = format: physicochemical
Excerpt: The invention includes within its scope pharmaceutical compositions containing at least one of the above-mentioned antibiotic compounds and a pharmaceutically acceptable carrier. The compositions may also contain other active antibacterial agents. The compositions may be made up in any pharmaceutical form appropriate for the route of administration in question. Such compositions are exemplified by solid compositions for oral administration, such as tablets, capsules, pills, powders and granules; liquid compositions for oral administration such as solutions, suspensions, syrups and elixirs; preparations for parenteral administration such as sterile solutions, suspensions or emulsions; and preparations for topical administration such as gels, creams, ointments or salves. […] In 40% prophylene glycol in water (V/V), the solubility of HPB4 free base is greater than about 200 mg/ml. […] The solubility of HPB4.K is about 300 mg/ml. The solubility of HPB4.2HCl is about 600 mg/ml.
(§1) The solubility of the potassium salt is about 300 mg/ml in water.

[2] = pH of aqueous solution; format: physicochemical; details: 100 mg/ml aqueous solution
Procedure: as §1

[3] = test system: Staphylococcus aureus; experiment: standard microtiter assay, minimum inhibitory concentration; format: cell-based; details: for MIC: Table 5 organism 1 S. aureus
Excerpt: (§2) Representative results of standard microtiter assays are reported in Tables 1, 2 and 3 which follow, as the minimum inhibitory concentration of antibiotic (μg/ml).
(§3) In Table 1, test organisms 1-13 were different strains of Staphylococcus aureus, and 14-16 were different strains of Staphylococcus epidermidis. In Table 2, test organisms 1-5 were different strains of S. aureus; 6, 8, 12 and 14 were different strains of S. epidermidis; 7 was a Staphylococcus haemolyticus; 9 and 10 were different strains of Streptococcus faecalis; 11 was a Streptococcus pyogenes; and 13 was a Staphylococcus saprophyticus. In Table 3, test organisms 1-3 were different strains of S. aureus; 4 and 6 were different strains of S. epidermidis; 5 was a S. haemolyticus and 7 and 8 were different strains of Streptococcus faecalis. Except where individual components are indicated, the CWI-785 antibiotic employed was the CWI-785 complex; in some cases, HCl salts of the CWI-785 antibiotic were employed.
(§4) The number of strains tested is shown in parentheses below each organism. The average MIC is reported in μg/ml.
(§5) In Table 5 are shown data from standard microtiter assays carried out in a presence of no serum, 50% human serum (hum.) and 50% mouse serum (mse.). The test organisms were 1: S. aureus; 2,4 and 5: different strains of S. epidermidis; 3: S. haemolyticus; 6: S. saprophyticus; 7 and 8: different strains of S. faecalis.

[4] = test system: Streptococcus faecalis; experiment: as above; format: cell-based
Excerpt: as §2, §3, §4, §5

[5] = test system: Staphylococcus epidermidis; experiment: as above; format: cell-based
Excerpt: as §2, §3, §5

[6] = test system: Staphylococcus haemolyticus; experiment: as above; format: cell-based; details: for MIC: Table 5 organism 3 S. haemolyticus
Excerpt: as §2, §3, §5

[7] = test system: Staphylococcus saprophyticus; experiment: as above; format: cell-based; details: for MIC: Table 5 organism 6 S. saprophyticus
Excerpt: as §2, §3, §5

[8] = test system: Streptococcus pyogenes; experiment: as above; format: cell-based; details: Table 2 test organism 11, Streptococcus pyogenes
Excerpt: as §2, §3

[9] = test system: Coag-neg. Staphylococci; experiment: MIC against an expanded panel; format: cell-based; details: Table 4, Coag-neg. Staphylococci (24 strains)
Excerpt: as §4

[10] = test system: Group A Strep.; experiment: MIC against an expanded panel; format: cell-based; details: Table 4, Group A Strep. (6 strains)
Excerpt: as §4

[11] = test system: Group B Strep.; experiment: MIC against an expanded panel; format: cell-based; details: Table 4, Group B Strep. (4 strains)
Excerpt: as §4

[12] = test system: JK Diptheroids; experiment: MIC against an expanded panel; format: cell-based; details: Table 4, JK Diptheroids (19 strains)
Excerpt: as §4

[13] = test system: Viridans; experiment: MIC against an expanded panel; format: cell-based; details: Table 4, Viridans (2 strains)
Excerpt: as §4

[14] = test system: S. aureus; experiment: mice infected intraperitoneally, dosed 1 hr after infection, ED50; format: in vivo; details: for ED50: antibiotic i.v. 1 hr post infection
Procedure: (§6) The in vivo activity of the CWI-785 complex and its components and hydrolysis products was confirmed by administering selected CWI-785 antibiotics to mice infected with various gram-positive pathogens. In one representative assay, in which mice infected intraperitoneally with 46.8 LD50 's of S. aureus (strain 1, Tables 1 and 2) were dosed once, subcutaneously one hour after infection, the following ED50 's (mg/kg) were observed: CWI-785B: 2.4, CWI-785C: 3.1, CWI-785: 3.8, HPB3: 0.9, vancomycin: 0.7. In a second representative assay carried out as above except that mice were infected with 3.17 LD50 's of S. faecalis (strain 9, Table 2), the following ED50 's were observed: HPB3 hydrochloride: 1.6, HPB4 hydrochloride: 1.6, vancomycin: 2.2, teicoplanin: 1.3.
(§7) In Table 6, below, is shown the ED50 in mg/kg of HPB4 in comparison to vancomycin and teicoplanin. Mice were injected i.p. with the indicated organism and then i.v., 1 hr post infection, with the indicated antibiotic.

[15] = test system: S. faecalis; experiment: as above; format: in vivo
Procedure: as §6, §7

[16] = test system: S. epidermidis; experiment: mice infected i.p., antibiotic i.v. 1 hr post infection, ED50; format: in vivo; details: S. epidermidis 2479 (>1000 × LD50) i.p., antibiotic i.v. 1 hr post infection
Procedure: as §7

[17] = test system: S. haemolyticus; experiment: as above; format: in vivo; details: S. haemolyticus 651 (8 × LD50) i.p., antibiotic i.v. 1 hr post infection
Procedure: as §7

[18] = predicted human half-life; details: in comparison to vancomycin
[19] = test system: gram-positive organisms; experiment: in vitro antibacterial activity (stated in words); format: cell-based; details: in vitro data
Excerpt: Unless specifically indicated, as used herein, CWI-785B, HPB4 and HPB3 will mean a mixture of epimers. Analogous ' and " epimers of other components of the CWI-785 complex also exist and are included within the scope of the invention.

[20] = Table 4, S. aureus (30 strains)
[21] = Table 4, Strep. faecalis (12 strains)

CNC(C(=O)NC1C(=O)NC(CCSC)C(=O)NC2C(=O)NC3C(=O)NC(C(=O)NC(C(=O)[O-])c4cc(O)cc(O)c4-c4cc3ccc4O)C(OC3CC(N)C(O)C(C)O3)c3ccc(c(Cl)c3)Oc3cc2cc(c3O)Oc2ccc(cc2)C1O)c1ccc(O)cc1.[K+] (stereo not drawn) [HPB4.K]
solubility [1]: about 300 mg/ml
pH of aqueous solution [2]: 9.29

CNC(C(=O)NC1C(=O)NC(CCSC)C(=O)NC2C(=O)NC3C(=O)NC(C(=O)NC(C(=O)O)c4cc(O)cc(O)c4-c4cc3ccc4O)C(O[C@H]3C[C@@H](N)[C@@H](O)[C@H](C)O3)c3ccc(c(Cl)c3)Oc3cc2cc(c3O)Oc2ccc(cc2)C1O)c1ccc(O)cc1 (stereo partly drawn) [HPB4]
minimum inhibitory concentration ([3]; Table 2 test organism 1, S. aureus strain): 1.6 µg/mL (≈ 1.24 µM)
minimum inhibitory concentration ([3]; Table 2 test organism 2, S. aureus strain): 0.8 µg/mL (≈ 0.619 µM)
minimum inhibitory concentration ([3]; Table 2 test organism 3, S. aureus strain): 0.8 µg/mL (≈ 0.619 µM)
minimum inhibitory concentration ([3]; Table 2 test organism 4, S. aureus strain): 0.8 µg/mL (≈ 0.619 µM)
minimum inhibitory concentration ([3]; Table 2 test organism 5, S. aureus strain): 0.8 µg/mL (≈ 0.619 µM)
MIC50 [3, 20]: 0.8 µg/mL (≈ 0.619 µM)
MIC RANGE [3, 20]: 0.2 to 0.8 µg/mL
MIC ([3]; 50% Hum. Serum): 1.6 µg/mL (≈ 1.24 µM)
MIC ([3]; 50% Mse. Serum): 1.6 µg/mL (≈ 1.24 µM)
MIC ([3]; No Serum): 1.6 µg/mL (≈ 1.24 µM)
minimum inhibitory concentration ([4]; Table 2 test organism 9, Streptococcus faecalis strain): 0.8 µg/mL (≈ 0.619 µM)
minimum inhibitory concentration ([4]; Table 2 test organism 10, Streptococcus faecalis strain): 0.8 µg/mL (≈ 0.619 µM)
MIC50 [4, 21]: 0.4 µg/mL (≈ 0.31 µM)
MIC RANGE [4, 21]: 0.2 to 0.8 µg/mL
MBC50 ([4]; Table 4, Strep. faecalis MBC50): 12.5 µg/mL (≈ 9.68 µM)
MBC RANGE ([4]; Table 4, Strep. faecalis MBC50 column): 3.1 to 25 µg/mL
MIC ([4]; Table 5 organism 7 S. faecalis, 50% Hum. Serum): 3.1 µg/mL (≈ 2.4 µM)
MIC ([4]; Table 5 organism 7 S. faecalis, 50% Mse. Serum): 3.1 µg/mL (≈ 2.4 µM)
MIC ([4]; Table 5 organism 7 S. faecalis, No Serum): 0.4 µg/mL (≈ 0.31 µM)
MIC ([4]; Table 5 organism 8 S. faecalis, 50% Hum. Serum): 3.1 µg/mL (≈ 2.4 µM)
MIC ([4]; Table 5 organism 8 S. faecalis, 50% Mse. Serum): 3.1 µg/mL (≈ 2.4 µM)
MIC ([4]; Table 5 organism 8 S. faecalis, No Serum): 0.4 µg/mL (≈ 0.31 µM)
minimum inhibitory concentration ([5]; Table 2 test organism 6, S. epidermidis strain): 1.6 µg/mL (≈ 1.24 µM)
minimum inhibitory concentration ([5]; Table 2 test organism 8, S. epidermidis strain): 3.1 µg/mL (≈ 2.4 µM)
minimum inhibitory concentration ([5]; Table 2 test organism 12, S. epidermidis strain): 1.6 µg/mL (≈ 1.24 µM)
minimum inhibitory concentration ([5]; Table 2 test organism 14, S. epidermidis strain): 0.8 µg/mL (≈ 0.619 µM)
MIC ([5]; Table 5 organism 2 S. epidermidis, 50% Hum. Serum): 3.1 µg/mL (≈ 2.4 µM)
MIC ([5]; Table 5 organism 2 S. epidermidis, 50% Mse. Serum): 3.1 µg/mL (≈ 2.4 µM)
MIC ([5]; Table 5 organism 2 S. epidermidis, No Serum): 1.6 µg/mL (≈ 1.24 µM)
MIC ([5]; Table 5 organism 4 S. epidermidis, 50% Hum. Serum): 3.1 µg/mL (≈ 2.4 µM)
MIC ([5]; Table 5 organism 4 S. epidermidis, 50% Mse. Serum): 3.1 µg/mL (≈ 2.4 µM)
MIC ([5]; Table 5 organism 4 S. epidermidis, No Serum): 3.1 µg/mL (≈ 2.4 µM)
MIC ([5]; Table 5 organism 5 S. epidermidis, 50% Hum. Serum): 3.1 µg/mL (≈ 2.4 µM)
MIC ([5]; Table 5 organism 5 S. epidermidis, 50% Mse. Serum): 1.6 µg/mL (≈ 1.24 µM)
MIC ([5]; Table 5 organism 5 S. epidermidis, No Serum): 0.8 µg/mL (≈ 0.619 µM)
minimum inhibitory concentration ([6]; Table 2 test organism 7, Staphylococcus haemolyticus): 1.6 µg/mL (≈ 1.24 µM)
MIC ([6]; 50% Hum. Serum): 6.3 µg/mL (≈ 4.88 µM)
MIC ([6]; 50% Mse. Serum): 6.3 µg/mL (≈ 4.88 µM)
MIC ([6]; No Serum): 1.6 µg/mL (≈ 1.24 µM)
minimum inhibitory concentration ([7]; Table 2 test organism 13, Staphylococcus saprophyticus): 1.6 µg/mL (≈ 1.24 µM)
MIC ([7]; 50% Hum. Serum): 6.3 µg/mL (≈ 4.88 µM)
MIC ([7]; 50% Mse. Serum): 0.2 µg/mL (≈ 0.155 µM)
MIC ([7]; No Serum): 0.8 µg/mL (≈ 0.619 µM)
minimum inhibitory concentration [8]: 0.2 µg/mL (≈ 0.155 µM)
MIC50 [9]: 1.6 µg/mL (≈ 1.24 µM)
MIC RANGE [9]: 0.4 to 3.1 µg/mL
MIC50 [10]: 0.4 µg/mL (≈ 0.31 µM)
MIC RANGE [10]: 0.05 to 0.8 µg/mL
MIC RANGE [11]: 0.1 to 0.8 µg/mL
MIC50 [12]: 0.4 µg/mL (≈ 0.31 µM)
MIC RANGE [12]: 0.4 to 0.8 µg/mL
MIC RANGE [13]: 0.025 to 0.8 µg/mL
ED50 ([14]; S. aureus 2620 (24 × LD50) i.p.): 1.6 mg/kg
ED50 ([14]; S. aureus HH 127 (35 × LD50) i.p.): 1.8 mg/kg
in vivo effectiveness relative to HPB4" ([14]; against S. aureus 127): fourfold more effective
ED50 ([15]; S. faecalis 34358 (9 × LD50) i.p., antibiotic i.v. 1 hr post infection): 1.0 mg/kg
in vivo effectiveness relative to HPB4" ([15]; against S. faecalis 34358): fourfold more effective
ED50 [16]: 2.0 mg/kg
ED50 [17]: 20 mg/kg
human half-life (predicted) [18]: at least 12 hours
in vitro activity relative to the corresponding B" isomer [19]: more active
